Reference: patent publication US12473289B2, “Heterocyclic compounds as delta-5 desaturase inhibitors and methods of use” (Amgen Inc., priority 2019, dated 2025)

How the values were obtained:
Delta-5-Desaturase (D5D) [1] = target: Delta-5-Desaturase (D5D) (Mus musculus (Mouse), UniProt Q920L1); experiment: In vivo measurement of Delta-5-Desaturase inhibitory activity (plasma AA/DGLA ratio in DIO mice); settings: single oral dose 30 mg/kg, read-out: Average % D5D Inhibition expressed as Plasma Endogenous AA/DGLA Ratio
Sequence of Delta-5-Desaturase (D5D) (Mus musculus (Mouse), UniProt Q920L1) (Q920L1 whole entry): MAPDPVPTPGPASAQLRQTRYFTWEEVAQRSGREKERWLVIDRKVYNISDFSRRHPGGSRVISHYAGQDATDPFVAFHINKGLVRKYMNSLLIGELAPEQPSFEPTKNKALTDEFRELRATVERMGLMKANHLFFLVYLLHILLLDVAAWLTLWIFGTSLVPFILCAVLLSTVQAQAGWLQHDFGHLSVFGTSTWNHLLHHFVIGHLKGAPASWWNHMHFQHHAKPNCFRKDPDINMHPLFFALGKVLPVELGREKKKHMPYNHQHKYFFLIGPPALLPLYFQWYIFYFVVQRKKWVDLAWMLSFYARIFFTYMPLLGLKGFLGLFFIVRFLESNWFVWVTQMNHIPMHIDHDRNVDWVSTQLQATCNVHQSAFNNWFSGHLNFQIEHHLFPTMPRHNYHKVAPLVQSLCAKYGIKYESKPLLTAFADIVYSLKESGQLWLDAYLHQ

[2] = test system: Diet-Induced Obese (DIO) mice; experiment: Assessment of D5D inhibitor in Diet-Induced Obese (DIO) mice; assay type: in vivo; settings: 10 mg/kg daily per os
From the text: Assessment of D5D) Inhibitor in Diet-Induced Obese (DIO) Mice
Thirty-six male C57BL/6J DIO mice (Jackson Laboratories, stock No.: 380050) fed high-fat diet (Research Diets, Inc., D12492) for 14 weeks. All animals were given free access to water and chow. Animals were acclimated to per os dosing for 3 days prior to the start of the experiment. Animals were randomized on body weight, fat mass, lean mass, and blood glucose concentrations in to 4 groups of 8 animals per group. Animals were daily dosed per os with either: vehicle (2% hydroxypropyl methyl cellulose, 1% Tween 80 in water), Example 1-68 at 30 mg/kg, Example 1-34 at 10 mg/kg, and Example 1-27 at 10 mg/kg, all compounds were formulated in 2% hydroxypropyl methylcellulose, 1% Tween 80 in water. […] On day 52, a 4-hour fasted blood collection was performed, blood glucose was immediately measured, and plasma samples were created from the remaining blood and used to measure cholesterol, triglycerides, LDL cholesterol, and insulin. On day 54, body composition (EchoMRI) was determined. On day 56 the animals were sacrificed, and plasma was collected for measurement of DGLA and AA concentrations. Liver, epididymal white adipose tissue and inguinal white adipose tissue weights were recorded. Data was analyzed using GraphPad Prism v. 7.04.
All compounds led to weight loss over the course of the experiment (Table 28) compared to vehicle controls. Consistently fat and lean mass was reduced, along with lower inguinal and epididymal white adipose tissue (WAT) weights at necropsy. Blood glucose and plasma insulin levels were both reduced by the FADS1 inhibitors, along with reductions in plasma cholesterol, LDL cholesterol and triglycerides. Evidence of target engagement was established by observing increases in plasma DGLA and decreases in plasma AA.

Delta-5-Desaturase (D5D) [3] = target: Delta-5-Desaturase (D5D) (Homo sapiens (Human), UniProt O60427); experiment: In vitro measurement of Delta-5-Desaturase inhibitory activity using DGLA-CoA and Arachidonyl-CoA mass spectrometric assays; assay type: biochemical; settings: membrane preparations of D5D-overexpressing HEK293 6E cells; averaged over at least two independent runs
Sequence of Delta-5-Desaturase (D5D) (Homo sapiens (Human), UniProt O60427) (O60427 whole entry, species assumed): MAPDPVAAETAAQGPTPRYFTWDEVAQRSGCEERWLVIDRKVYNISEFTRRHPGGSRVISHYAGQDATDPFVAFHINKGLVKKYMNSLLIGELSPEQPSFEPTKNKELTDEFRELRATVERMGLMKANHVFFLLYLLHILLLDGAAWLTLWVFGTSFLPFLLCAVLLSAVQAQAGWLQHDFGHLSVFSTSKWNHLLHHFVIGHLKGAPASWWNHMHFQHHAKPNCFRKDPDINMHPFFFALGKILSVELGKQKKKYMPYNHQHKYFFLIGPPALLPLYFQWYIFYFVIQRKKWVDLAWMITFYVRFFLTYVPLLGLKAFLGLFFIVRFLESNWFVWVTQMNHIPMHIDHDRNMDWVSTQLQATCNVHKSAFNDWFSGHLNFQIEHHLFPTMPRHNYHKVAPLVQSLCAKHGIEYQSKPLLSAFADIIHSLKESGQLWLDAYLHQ
How it was run: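 DGLA-CoA and arachidonyl-CoA were read by RapidFire SPE triple-quad MS (negative mode, MRM) after a 1 h ambient-temperature reaction quenched with acetonitrile. Enzyme was D5D-overexpressing HEK293 6E membranes at 10 μg/mL final; substrate solution held 0.01 mM DGLA plus NADH, ATP and CoA. Inhibition was referenced to DMSO and no-enzyme wells; 4PL IC50.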

inhibition in vivo at 30 mg/kg (Delta-5-Desaturase (D5D) [1]): 66%
IC50 (Delta-5-Desaturase (D5D) [3]): 30.7 nM
SMILES: COc1ccn2c(=O)c(-c3cnn(CC(F)(F)C(F)(F)F)c3)c(C(F)(F)F)nc2n1 [Example 1-34, 8-methoxy-3-(1-(2,2,3,3,3-pentafluoropropyl)-1H-pyrazol-4-yl)-2-(trifluoromethyl)-4H-pyrimido[1,2-a]pyrimidin-4-one]
Food consumption ([2]; day 0-2): 2.2 ± 0.1 g/day
Food consumption ([2]; day 50-52): 3.0 ± 0.1 g/day
Blood glucose ([2]; day 52, 4-hour fasted): 150.5 ± 8.3 mg/dL
Cholesterol ([2]; day 52, plasma): 177.1 ± 12.6 mg/dL
Insulin ([2]; day 52, plasma): 0.6 ± 0.2 ng/mL
LDL cholesterol ([2]; day 52, plasma): 88.6 ± 9.2 mg/dL
Triglycerides ([2]; day 52, plasma): 15.6 ± 2.3 mg/dL
Fat mass ([2]; day 54, EchoMRI): 7.4 ± 0.9 g
Lean mass ([2]; day 54, EchoMRI): 26.6 ± 0.7 g
AA ([2]; day 56, plasma): 29.4 ± 0.9 µg/mL
DGLA ([2]; day 56, plasma): 161.4 ± 8.5 µg/mL
Body weight ([2]; day 56): 34.7 ± 1.6 g
Liver weights ([2]; day 56): 2.9 ± 0.3 g
epididymal WAT ([2]; day 56): 0.9 ± 0.1 g
inguinal WAT ([2]; day 56): 0.8 ± 0.1 g
